Results on 29 molecules are retold here after ChEMBL document CHEMBL5236556, “Development of Cdc2-like Kinase 2 Inhibitors: Achievements and Future Directions” (J Med Chem, 2021).

Each structure is given as a SMILES string. The source made the active and inactive calls. No cut-off for these calls is given here.

Usually IC50 stands for the concentration needed to halve the response being measured. A word on the inhibition: it is the share of the control response that was lost under treatment. Broadly, the EC50 is the midpoint of the concentration-response curve. A higher EC50 goes with a need for much substance.

Assay [1] has as its target T1, Dual specificity protein kinase CLK2 (Homo sapiens, UniProt P49760).
Target sequence in this assay (P49760 whole entry): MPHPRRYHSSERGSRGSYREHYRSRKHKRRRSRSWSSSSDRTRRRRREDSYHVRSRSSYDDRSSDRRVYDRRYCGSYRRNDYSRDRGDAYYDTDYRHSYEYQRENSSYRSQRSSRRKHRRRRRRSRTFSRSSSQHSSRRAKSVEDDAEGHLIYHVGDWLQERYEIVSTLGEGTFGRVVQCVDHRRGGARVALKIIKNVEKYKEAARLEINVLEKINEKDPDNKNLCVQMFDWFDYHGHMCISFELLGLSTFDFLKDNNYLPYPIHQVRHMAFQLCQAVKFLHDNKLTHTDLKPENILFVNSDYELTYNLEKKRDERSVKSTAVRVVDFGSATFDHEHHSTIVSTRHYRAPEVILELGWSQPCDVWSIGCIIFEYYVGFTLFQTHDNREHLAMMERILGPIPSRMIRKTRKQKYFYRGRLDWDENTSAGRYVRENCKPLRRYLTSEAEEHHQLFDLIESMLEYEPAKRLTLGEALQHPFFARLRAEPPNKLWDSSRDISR
Assay [2] concerns the target T2, Dual specificity protein kinase CLK3 (Homo sapiens, UniProt P49761).
Target sequence in this assay (P49761 whole entry): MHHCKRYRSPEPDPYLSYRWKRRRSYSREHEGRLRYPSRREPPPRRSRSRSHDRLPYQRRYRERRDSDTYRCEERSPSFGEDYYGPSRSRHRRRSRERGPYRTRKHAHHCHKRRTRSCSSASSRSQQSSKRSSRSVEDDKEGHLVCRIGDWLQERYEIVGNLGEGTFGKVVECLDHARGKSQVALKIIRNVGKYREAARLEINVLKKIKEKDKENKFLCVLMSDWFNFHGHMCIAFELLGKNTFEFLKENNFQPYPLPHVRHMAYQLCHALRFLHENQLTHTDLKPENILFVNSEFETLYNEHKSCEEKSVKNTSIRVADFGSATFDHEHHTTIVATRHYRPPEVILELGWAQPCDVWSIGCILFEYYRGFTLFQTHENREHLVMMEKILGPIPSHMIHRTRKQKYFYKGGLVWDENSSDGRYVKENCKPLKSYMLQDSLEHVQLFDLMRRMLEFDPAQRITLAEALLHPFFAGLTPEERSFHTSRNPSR
For assay [3], the target named is T3, Dual specificity protein kinase CLK1 (Homo sapiens, UniProt P49759).
Assay [4] has as its target T4, Dual specificity protein kinase CLK4 (Homo sapiens, UniProt Q9HAZ1).
For another assay, the system named is Cancer cell lines. Nature of the assay: Antiproliferative activity against cancer cells (unknown origin). The assay is classed as functional, cell-based. As to conditions: Homo sapiens.
A further assay has as its system T-24. Briefly: Cytotoxicity against T24 cells (unknown origin) assessed as supressed cell growth. The class given is functional, cell-based. The following applies: Homo sapiens.
The next assay deals with MDA-MB-231. Briefly: Cytotoxicity against MDA-MB-231 cells (unknown origin) assessed as supressed cell growth. The class given is functional, cell-based. The following applies: Homo sapiens.
Assay [5] has as its target T2, Dual specificity protein kinase CLK3. Briefly: Inhibition of human CLK3 assessed as residual activity at 3 uM.
Target sequence in this assay (P49761 whole entry, looked up): as the sequence (P49761 whole entry) above
Assay [6] concerns Triple-negative breast cancer cell. Nature of the assay: Antitumour activity expressed in triple negative breast cells (unknown origin) with dysfunctional G1-S checkpoint. The class given is functional, cell-based. As to conditions: Homo sapiens.
The test system of a further assay is Lung cancer cell line. Nature of the assay: Cytotoxicity against lung cancer cells (unknown origin). The assay is classed as functional, cell-based. As to conditions: Homo sapiens.
The target in assay [7] is T1, Dual specificity protein kinase CLK2. Nature of the assay: Inhibition of human CLK2 administered orally.
Target sequence in this assay (P49760 whole entry): as the sequence (P49760 whole entry) above
The target in assay [8] is T3, Dual specificity protein kinase CLK1. Nature of the assay: Inhibition of human CLK1 administered orally.
The target in assay [9] is T2, Dual specificity protein kinase CLK3. Nature of the assay: Inhibition of human CLK3 administered orally.
Target sequence in this assay (P49761 whole entry): as the sequence (P49761 whole entry) above
For assay [10], the target named is T4, Dual specificity protein kinase CLK4. Nature of the assay: Inhibition of human CLK4 administered orally.
Assay [11] concerns the target T1, Dual specificity protein kinase CLK2. Nature of the assay: Inhibition of human CLK2 at 1 uM.
Target sequence in this assay (P49760 whole entry, looked up): as the sequence (P49760 whole entry) above
Assay [12] is filed under the species Homo sapiens. Briefly: Selectivity ratio of IC50 for inhibition of human CLK3 to IC50 for inhibition of human CLK2 by biochemical caliper assay.
Assay [13] deals with T3, Dual specificity protein kinase CLK1. Briefly: Inhibition of CLK1 (unknown origin).
Assay [14] deals with T1, Dual specificity protein kinase CLK2. Briefly: Inhibition of CLK2 (unknown origin).
Target sequence in this assay (P49760 whole entry): as above
The nature of assay [15]: Antifibrotic activity in TGF-beta1 induced primary human lung fibroblast. The assay is classed as functional, cell-based.
The target of assay [16] is SRSF protein kinase 1 (Homo sapiens) (UniProt Q96SB4). Nature of the assay: Inhibition of SRSF phosphorylation in human HeLa cells. The class given is cell-based.
For the next assay, the system named is PC-3. Briefly: Cytotoxicity against human PC-3 cells. The class given is functional, cell-based.
A further assay relates to MCF7. Briefly: Cytotoxicity against human MCF7 cells. The assay is classed as functional, cell-based.
The species entered for assay [17] is Homo sapiens. Briefly: Inhibition of DYRK kinase (unknown origin) at 100 uM.
Assay [18] deals with T1, Dual specificity protein kinase CLK2. Nature of the assay: Inhibition of human CLK2 measured by DSF assay.
Target sequence in this assay (P49760 whole entry, looked up): as the sequence (P49760 whole entry) above
For a further assay, the species on record is Mus musculus. Nature of the assay: Induction of autophagy in APAP induced liver injury mouse model. The class given is functional, organism-based.

T3 sequence (P49759 whole entry): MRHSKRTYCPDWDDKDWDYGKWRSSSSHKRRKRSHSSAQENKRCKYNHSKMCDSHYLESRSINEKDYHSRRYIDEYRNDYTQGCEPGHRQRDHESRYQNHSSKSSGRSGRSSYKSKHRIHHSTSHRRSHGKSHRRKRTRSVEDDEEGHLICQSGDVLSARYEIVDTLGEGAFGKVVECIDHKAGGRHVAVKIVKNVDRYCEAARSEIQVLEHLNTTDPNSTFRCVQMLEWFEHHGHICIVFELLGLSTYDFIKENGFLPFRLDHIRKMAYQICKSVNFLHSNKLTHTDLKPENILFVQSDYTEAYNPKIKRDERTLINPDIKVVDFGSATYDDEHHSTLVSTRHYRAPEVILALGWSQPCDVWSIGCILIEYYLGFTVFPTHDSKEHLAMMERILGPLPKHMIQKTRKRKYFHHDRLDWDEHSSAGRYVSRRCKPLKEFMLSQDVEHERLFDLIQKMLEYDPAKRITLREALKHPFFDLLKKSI
T4 sequence (Q9HAZ1 whole entry): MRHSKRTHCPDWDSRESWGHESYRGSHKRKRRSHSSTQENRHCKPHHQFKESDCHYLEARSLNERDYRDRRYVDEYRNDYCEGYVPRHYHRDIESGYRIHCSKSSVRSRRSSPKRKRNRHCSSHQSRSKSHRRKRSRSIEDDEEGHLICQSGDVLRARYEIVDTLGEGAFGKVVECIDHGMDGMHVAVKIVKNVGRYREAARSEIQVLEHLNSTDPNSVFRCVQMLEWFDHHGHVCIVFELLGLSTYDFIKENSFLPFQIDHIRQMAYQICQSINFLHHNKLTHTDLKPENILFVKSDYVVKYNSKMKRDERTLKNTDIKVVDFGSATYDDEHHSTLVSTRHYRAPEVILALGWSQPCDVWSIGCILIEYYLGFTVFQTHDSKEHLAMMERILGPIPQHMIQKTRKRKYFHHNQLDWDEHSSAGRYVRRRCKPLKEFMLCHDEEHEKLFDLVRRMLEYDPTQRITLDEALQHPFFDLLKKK
Chain of SRSF protein kinase 1 (Homo sapiens) (Q96SB4 whole entry): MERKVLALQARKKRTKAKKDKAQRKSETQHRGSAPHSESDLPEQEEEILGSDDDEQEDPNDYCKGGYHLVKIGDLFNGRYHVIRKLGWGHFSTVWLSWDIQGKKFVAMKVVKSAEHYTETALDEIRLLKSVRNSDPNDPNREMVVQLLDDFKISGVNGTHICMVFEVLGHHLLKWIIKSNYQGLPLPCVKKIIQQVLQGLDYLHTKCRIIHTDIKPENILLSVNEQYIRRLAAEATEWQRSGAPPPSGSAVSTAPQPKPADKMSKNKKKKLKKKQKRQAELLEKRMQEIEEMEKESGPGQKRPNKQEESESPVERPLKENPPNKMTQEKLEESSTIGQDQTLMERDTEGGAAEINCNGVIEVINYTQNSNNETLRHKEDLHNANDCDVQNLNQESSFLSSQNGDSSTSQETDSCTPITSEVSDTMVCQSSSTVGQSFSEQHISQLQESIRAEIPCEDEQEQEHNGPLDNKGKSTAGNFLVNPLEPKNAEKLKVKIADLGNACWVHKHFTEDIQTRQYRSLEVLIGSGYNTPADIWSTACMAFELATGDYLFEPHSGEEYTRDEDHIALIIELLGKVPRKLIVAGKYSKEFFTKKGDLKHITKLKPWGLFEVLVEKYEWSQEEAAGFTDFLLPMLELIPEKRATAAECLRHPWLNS

`N=C1NC(=O)/C(=C/c2ccc3c(c2)CCO3)S1` gave an IC50 in [1] of 6800 nM.
On to `COc1c(O)ccc2c(=O)c3c(O)cc4c(c3[nH]c12)C=CC(C)(C)O4`, for which the IC50 in assay [2] was greater than 2000 nM; in assay [3] it was 210 nM.
On to `CC(C)n1cnc2c(Nc3cc(N)cc(Cl)c3)nc(NC3CCCCC3N)nc21` (stereo not drawn), for which the half-inhibitory concentration (IC50) in assay [2] was determined as 1000 nM; in [4] it was 25 nM; in assay [3], 17 nM; in [1] it was 6 nM.
`O=C1NCc2ccc3c(-c4cccc(Cl)c4)c[nH]c3c21`: the IC50 stood at 28 nM in assay [2], 88 nM in [3] and 510 nM in assay [1]. For the same molecule, the outcome in the assay with Cancer cell lines was Active.
For the molecule `COc1ccc2sc(C(=O)N(C)Cc3cccc(F)c3)cc2c1`, the IC50 in assay [4] is 2.3 nM; in assay [3], 7 nM; in [1], 19.1 nM. In addition, the result in the assay on T-24 and in the assay with MDA-MB-231 was Active.
`COc1ccc(NC(=O)c2n[nH]c3ccc(-c4cncc(CN5CCCCC5)c4)cc23)cc1`: the IC50 in assay [1] came to 0.822 nM.
Take `COc1cc(/C=C2\N=C(N)NC2=O)ccc1O` [POLYANDROCARPAMINE A]: the IC50 in assay [2] was greater than 2000 nM; in assay [4] it was 470 nM; in assay [3] it was 470 nM; in assay [1], 640 nM.
On to `CC(C)c1cnn2c(NCc3ccc(-c4ccccn4)cc3)nc(N[C@H]3CC[C@H](N)CC3)nc12`, for which the IC50 came out at 2.9 nM in [2], 89 nM in [4], 100 nM in assay [3] and 130 nM in assay [1].
In the case of `CC(C)(CO)c1ccc(C(=O)Nc2cn3cc(-c4cn[nH]c4)ccc3n2)cn1`, the IC50 is 1.1 nM in assay [3] and 2.1 nM in assay [1].
Turning to `CNC(=O)c1ccc(Nc2nc(OC3CCCC3)c3c(-c4ccc5nc(C)oc5c4)c[nH]c3n2)c(OC)c1`, the Activity in assay [5] came to 60%. Further, the outcome (in [6]; in the assay on Lung cancer cell line) was Active.
As to `CNc1nc(NCc2ncccn2)c2c(-c3ccc4ncccc4c3)c[nH]c2n1`, the IC50 in assay [7] was 0.096 nM; in assay [8], 4.8 nM; in assay [9] it was 6.5 nM; in assay [10] it was 0.61 nM.
Take `c1cc(-c2ccc3[nH]ncc3c2)ccn1`: the inhibition in assay [11] is 85%. The same molecule showed an IC50 in assay [3] of 113 nM.
As for `Cc1[nH]nc2ccc(-c3cncc(OC[C@@H](N)CC(C)C)c3)cc12`, the Ratio IC50 in the assay listed under Homo sapiens [12] stood at 225.
For `Cc1nc2ccc3sc(NC(=O)c4ccc5scnc5c4)nc3c2s1`, the values for the IC50 in assay [2], in assay [3] and in assay [1] were 346 nM, 51 nM and 68 nM, respectively.
On to `O=C1NCc2c(Cl)cc3c(-c4ccccc4)c[nH]c3c21`, for which the figures for the IC50 in [2], in assay [3] and in [1] were 300 nM, 380 nM and 33 nM, respectively.
Regarding `COc1cccc2c1[nH]c1c3ccncc3cc(C#N)c21`, the 50% inhibitory concentration (IC50) in assay [13] was 44 nM; in assay [14], 41 nM.
For `Cc1ccc(CNc2ncnc3ccc(-c4ccc(CO)o4)cc23)o1`, the IC50 in assay [2] was greater than 10000 nM.
On to `O=C(Nc1cccnc1)c1c[nH]nc1-c1nc2c(-c3cccc(F)c3)cccc2[nH]1`, for which the EC50 in assay [15] is 18 nM. Also, in assay [1], the IC50 worked out at 11 nM.
Molecule `CN1C(=O)/C(=C/c2ccc3c(c2)OCO3)N=C1N` [LEUCETTAMINE B] showed an IC50 in [1] of 720 nM.
`COc1cc(Nc2nccc(-c3cnn4nc(OC)ccc34)n2)cc(C(F)(F)F)c1` had an IC50 in assay [3] of 13 nM.
Turning to `CN1CCN(C(=O)C(C)(C)c2ccc(C(=O)Nc3cn4cc(-c5ccncc5)ccc4n3)cc2)CC1`, in assay [16], the inhibition result was “Dose-Dependent Effect”.
Consider `CC(C)(C)c1ccc(C(=O)Nc2cn3cc(-c4ccncc4)ccc3n2)cn1`, for which the IC50 in assay [3] came to 1.1 nM; in assay [1] it was 2.4 nM.
`O=[N+]([O-])c1ccccc1-n1cc(COc2cccc3cnc(Nc4cccc(Cl)c4)nc23)nn1`: the IC50 was greater than 1000 nM in [2]; 20 nM in assay [4]; 7000 nM with PC-3; 4000 nM in the assay with MCF7; 11 nM in assay [3]; 27 nM in [1]. For the same molecule, the inhibition result in the assay filed under Homo sapiens [17] is “inactive”.
For `c1csc(CNc2ncnc3ccc(-c4ccc5c(c4)OCO5)cc23)c1`, the IC50 in assay [2] turned out to be 470 nM; in [4], 50 nM; in [3], 37 nM; in [1], 680 nM.
Consider `O=C1NC(Nc2ccccc2)=N/C1=C\c1ccc2c(c1)OCO2`, for which the results for the IC50 in assay [2] and in [4] were greater than 10000 nM and 64 nM, respectively.
With `CCOC(=O)c1c(/C(C#N)=C\N)c2ccc(Cl)c(Cl)c2n1C`, the inhibition result in assay [18] is “Active”.
With `O=C(O)c1nc2ccccc2c2[nH]c3c(Cl)cccc3c12`, the IC50 in assay [2] is greater than 100 nM; in assay [4] it was 45 nM; in [3], 130 nM.
`C[C@@H](c1ccc(F)cc1)n1nnc2cnc3ccc(-c4ccc5ocnc5c4)cc3c21` displayed an IC50 in assay [2] of 8 nM. The result in the assay filed under Mus musculus was Active.
Consider `COc1ccc2sc(C(=O)N(C)OC)cc2c1`, for which the inhibition in assay [11] was determined as 73%.
